# Tests used:
# Test in all cases: relative viability (nuclei count vs DMSO), 5 days (fraction); higher = more cells survive
# 201T = tested on: 201T
# Outline: (§1)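 Cells from lung cancer lines were seeded into 1536-well plates and, one day later, dosed by pin tool. Treatments were either a single drug or a fixed dose of an anchor drug with five library-drug doses (not always all listed) in √10 steps. After 5 days, nuclei were stained in a one-step fixation (final 0.05% Triton X-100, 1% formaldehyde, 1 ug/ml Hoechst) and counted on 4× images, and relative viability is the treated-to-vehicle nuclei ratio, as the median of duplicate plates.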
# LOU-NH91 = tested on: LOU-NH91
# Outline: as §1
# NCI-H727 = tested on: NCI-H727
# Outline: as §1
# HCC-366 = tested on: HCC-366
# Outline: as §1
# HARA = tested on: HARA
# Outline: as §1
# NCI-H441 = tested on: NCI-H441
# Outline: as §1
# ABC-1 = tested on: ABC-1
# Outline: as §1
# NCI-H2009 = tested on: NCI-H2009
# Outline: as §1
# EKVX = tested on: EKVX
# Outline: as §1
# NCI-H1666 = tested on: NCI-H1666
# Outline: as §1
# NCI-H3122 = tested on: NCI-H3122
# Outline: as §1
# NCI-H460 = tested on: NCI-H460
# Outline: as §1
# PC-14 = tested on: PC-14
# Outline: as §1
# BEN = tested on: BEN
# Outline: as §1
# NCI-H661 = tested on: NCI-H661
# Outline: as §1
# NCI-H2170 = tested on: NCI-H2170
# Outline: as §1
# NCI-H1437 = tested on: NCI-H1437
# Outline: as §1
# COR-L 105 = tested on: COR-L 105
# Outline: as §1
# CAL-12T = tested on: CAL-12T
# Outline: as §1
# LK-2 = tested on: LK-2
# Outline: as §1
# NCI-H1650 = tested on: NCI-H1650
# Outline: as §1
smiles,measurement,setting,value
CC(=O)O[C@@]12CO[C@@H]1C[C@H](O)[C@@]1(C)C(=O)[C@H](O)C3=C(C)[C@@H](OC(=O)[C@H](O)[C@@H](NC(=O)OC(C)(C)C)c4ccccc4)C[C@@](O)([C@@H](OC(=O)c4ccccc4)[C@H]21)C3(C)C [Docetaxel] + CS(=O)(=O)N1CCN(Cc2cc3nc(-c4cccc5[nH]ncc45)nc(N4CCOCC4)c3s2)CC1 [Pictilisib] (partner 1 µM),relative viability,201T; first compound 0.0002 µM,0.683
same,relative viability,201T; first compound 0.000632 µM,0.672
same,relative viability,201T; first compound 0.002 µM,0.557
same,relative viability,201T; first compound 0.006325 µM,0.567
same,relative viability,201T; first compound 0.02 µM,0.289
same,relative viability,LOU-NH91; first compound 0.0002 µM,0.524
same,relative viability,LOU-NH91; first compound 0.000632 µM,0.491
same,relative viability,LOU-NH91; first compound 0.002 µM,0.38
same,relative viability,LOU-NH91; first compound 0.006325 µM,0.318
same,relative viability,LOU-NH91; first compound 0.02 µM,0.339
same,relative viability,NCI-H727; first compound 0.0002 µM,0.309
same,relative viability,NCI-H727; first compound 0.000632 µM,0.4
same,relative viability,NCI-H727; first compound 0.002 µM,0.255
same,relative viability,NCI-H727; first compound 0.006325 µM,0.213
same,relative viability,NCI-H727; first compound 0.02 µM,0.182
same,relative viability,HCC-366; first compound 0.0002 µM,0.0877
same,relative viability,HCC-366; first compound 0.002 µM,0.0735
same,relative viability,HCC-366; first compound 0.006325 µM,0.0362
same,relative viability,HCC-366; first compound 0.02 µM,0.0228
same,relative viability,HARA; first compound 0.0002 µM,0.211
same,relative viability,HARA; first compound 0.000632 µM,0.159
same,relative viability,HARA; first compound 0.002 µM,0.126
same,relative viability,HARA; first compound 0.006325 µM,0.0701
same,relative viability,HARA; first compound 0.02 µM,0.0659
same,relative viability,NCI-H441; first compound 0.0002 µM,0.352
same,relative viability,NCI-H441; first compound 0.000632 µM,0.32
same,relative viability,NCI-H441; first compound 0.002 µM,0.198
same,relative viability,NCI-H441; first compound 0.006325 µM,0.177
same,relative viability,NCI-H441; first compound 0.02 µM,0.11
same,relative viability,ABC-1; first compound 0.0002 µM,0.772
same,relative viability,ABC-1; first compound 0.000632 µM,0.685
same,relative viability,ABC-1; first compound 0.002 µM,0.442
same,relative viability,ABC-1; first compound 0.006325 µM,0.304
same,relative viability,ABC-1; first compound 0.02 µM,0.253
same,relative viability,NCI-H2009; first compound 0.0002 µM,0.696
same,relative viability,NCI-H2009; first compound 0.000632 µM,0.747
same,relative viability,NCI-H2009; first compound 0.002 µM,0.447
same,relative viability,NCI-H2009; first compound 0.006325 µM,0.203
same,relative viability,NCI-H2009; first compound 0.02 µM,0.129
same,relative viability,EKVX; first compound 0.0002 µM,0.447
same,relative viability,EKVX; first compound 0.000632 µM,0.45
same,relative viability,EKVX; first compound 0.002 µM,0.26
same,relative viability,EKVX; first compound 0.006325 µM,0.187
same,relative viability,EKVX; first compound 0.02 µM,0.119
same,relative viability,NCI-H1666; first compound 0.0002 µM,0.4
same,relative viability,NCI-H1666; first compound 0.000632 µM,0.431
same,relative viability,NCI-H1666; first compound 0.002 µM,0.273
same,relative viability,NCI-H1666; first compound 0.006325 µM,0.198
same,relative viability,NCI-H1666; first compound 0.02 µM,0.169
same,relative viability,NCI-H3122; first compound 0.0002 µM,0.567
same,relative viability,NCI-H3122; first compound 0.000632 µM,0.577
same,relative viability,NCI-H3122; first compound 0.002 µM,0.396
same,relative viability,NCI-H3122; first compound 0.006325 µM,0.217
same,relative viability,NCI-H3122; first compound 0.02 µM,0.172
same,relative viability,NCI-H460; first compound 0.0002 µM,0.351
same,relative viability,NCI-H460; first compound 0.000632 µM,0.3
same,relative viability,NCI-H460; first compound 0.002 µM,0.144
same,relative viability,NCI-H460; first compound 0.006325 µM,0.0682
same,relative viability,NCI-H460; first compound 0.02 µM,0.0373
same,relative viability,PC-14; first compound 0.0002 µM,0.629
same,relative viability,PC-14; first compound 0.000632 µM,0.376
same,relative viability,PC-14; first compound 0.002 µM,0.0774
same,relative viability,PC-14; first compound 0.006325 µM,0.0423
same,relative viability,PC-14; first compound 0.02 µM,0.0293
same,relative viability,BEN; first compound 0.0002 µM,0.479
same,relative viability,BEN; first compound 0.000632 µM,0.504
same,relative viability,BEN; first compound 0.006325 µM,0.23
same,relative viability,BEN; first compound 0.02 µM,0.169
same,relative viability,NCI-H661; first compound 0.0002 µM,0.356
same,relative viability,NCI-H661; first compound 0.000632 µM,0.387
same,relative viability,NCI-H661; first compound 0.002 µM,0.341
same,relative viability,NCI-H661; first compound 0.006325 µM,0.296
same,relative viability,NCI-H661; first compound 0.02 µM,0.278
same,relative viability,NCI-H2170; first compound 0.0002 µM,0.342
same,relative viability,NCI-H2170; first compound 0.000632 µM,0.288
same,relative viability,NCI-H2170; first compound 0.002 µM,0.183
same,relative viability,NCI-H2170; first compound 0.006325 µM,0.186
same,relative viability,NCI-H1437; first compound 0.0002 µM,0.453
same,relative viability,NCI-H1437; first compound 0.000632 µM,0.366
same,relative viability,NCI-H1437; first compound 0.002 µM,0.132
same,relative viability,NCI-H1437; first compound 0.006325 µM,0.117
same,relative viability,NCI-H1437; first compound 0.02 µM,0.0671
same,relative viability,COR-L 105; first compound 0.0002 µM,0.392
same,relative viability,COR-L 105; first compound 0.000632 µM,0.37
same,relative viability,COR-L 105; first compound 0.002 µM,0.278
same,relative viability,COR-L 105; first compound 0.006325 µM,0.228
same,relative viability,COR-L 105; first compound 0.02 µM,0.294
same,relative viability,CAL-12T; first compound 0.0002 µM,0.53
same,relative viability,CAL-12T; first compound 0.000632 µM,0.271
same,relative viability,CAL-12T; first compound 0.002 µM,0.268
same,relative viability,CAL-12T; first compound 0.006325 µM,0.24
same,relative viability,CAL-12T; first compound 0.02 µM,0.171
same,relative viability,LK-2; first compound 0.0002 µM,0.496
same,relative viability,LK-2; first compound 0.000632 µM,0.404
same,relative viability,LK-2; first compound 0.002 µM,0.216
same,relative viability,LK-2; first compound 0.006325 µM,0.25
same,relative viability,LK-2; first compound 0.02 µM,0.203
same,relative viability,NCI-H1650; first compound 0.0002 µM,0.431
same,relative viability,NCI-H1650; first compound 0.000632 µM,0.289
same,relative viability,NCI-H1650; first compound 0.002 µM,0.241
same,relative viability,NCI-H1650; first compound 0.006325 µM,0.146
same,relative viability,NCI-H1650; first compound 0.02 µM,0.13

# Source: the supplement of paper PMC10307832
